Laboratory results from publication PMC3759421, “Blocking Plasmodium falciparum Development via Dual Inhibition of Hemoglobin Degradation and the Ubiquitin Proteasome System by MG132” (PLoS ONE, 2013).
Peptide text beside a SMILES is read from it. * marks the point of attachment. Cbz = O=C(OCc1ccccc1)*

Legend:
falcipain-2 (FP2) [1] = target: T1, falcipain-2 (FP2) (Plasmodium falciparum, UniProt Q8I6U4); experiment: biochemical; settings: read-out: FP2
T1 construct: gene FP2A; carboxy-terminus region of the prodomain (36 amino acid residues) and the entire mature protease domain
T1 sequence (Q8I6U4 208-484): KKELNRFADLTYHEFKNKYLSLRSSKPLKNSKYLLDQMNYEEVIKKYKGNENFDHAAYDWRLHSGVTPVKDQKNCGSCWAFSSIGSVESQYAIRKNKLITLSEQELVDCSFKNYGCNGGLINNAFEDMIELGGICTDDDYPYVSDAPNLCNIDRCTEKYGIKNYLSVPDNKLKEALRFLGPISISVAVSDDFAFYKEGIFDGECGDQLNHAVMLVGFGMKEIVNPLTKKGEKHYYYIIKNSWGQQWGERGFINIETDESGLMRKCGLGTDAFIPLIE
Description: recombinant enzyme inhibition, Z-LR-AMC hydrolysis progress curves (association rate constant); active site titration on falcipain-2 (FP2) | Concentrations of active FP2 and FP3 were determined by active site titration using E64

falcipain-3 (FP3) [2] = target: T2, falcipain-3 (FP3) (Plasmodium falciparum, UniProt Q8IIL0); experiment: recombinant enzyme inhibition, Z-LR-AMC hydrolysis progress curves (association rate constant); active site titration; format: biochemical; settings: read-out: FP3
T2 construct: carboxy-terminus region of the prodomain (35 amino acid residues) and the entire mature protease domain
T2 sequence (Q8IIL0 208-492): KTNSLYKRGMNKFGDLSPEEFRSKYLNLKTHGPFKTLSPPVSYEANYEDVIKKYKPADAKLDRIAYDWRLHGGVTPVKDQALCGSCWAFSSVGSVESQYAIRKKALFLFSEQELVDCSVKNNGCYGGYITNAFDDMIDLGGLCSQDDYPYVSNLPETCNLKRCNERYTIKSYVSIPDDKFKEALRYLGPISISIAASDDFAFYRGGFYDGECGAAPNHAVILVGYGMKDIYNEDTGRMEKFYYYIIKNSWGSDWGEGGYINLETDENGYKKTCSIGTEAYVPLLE
Source text: recombinant enzyme inhibition, Z-LR-AMC hydrolysis progress curves (association rate constant); active site titration on falcipain-3 (FP3) | MG132 and E64 inhibited hydrolysis of Z-LR-AMC by both enzymes (Figure 4B)

falcipain-3 (FP3) [3] = target: T2, falcipain-3 (FP3); experiment: recombinant enzyme inhibition, Z-LR-AMC hydrolysis progress curves (association rate constant); format: biochemical; settings: read-out: FP3
Source text: recombinant enzyme inhibition, Z-LR-AMC hydrolysis progress curves (association rate constant) on falcipain-3 (FP3) | MG132 and E64 inhibited hydrolysis of Z-LR-AMC by both enzymes (Figure 4B), confirming that MG132 is a falcipain inhibitor

falcipain-2 (FP2) [4] = target: T1, falcipain-2 (FP2); experiment: as above; format: biochemical; settings: read-out: FP2

SMILES: CC(C)C[C@H](NC(=O)[C@H]1O[C@@H]1C(=O)O)C(=O)NCCCCN=C(N)N [E64, L-trans-epoxysuccinyl-leucyl-amido(4-guanidino)butane]
- kon (falcipain-2 (FP2) [1]): 10300 M⁻¹ s⁻¹
- kon (falcipain-3 (FP3) [2]): 4090 M⁻¹ s⁻¹

SMILES: CC(C)C[C@@H](C=O)NC(=O)[C@H](CC(C)C)NC(=O)[C@H](CC(C)C)NC(=O)OCc1ccccc1 [MG132] (Cbz-Leu-Leu-Leu-aldehyde)
- kon (falcipain-3 (FP3) [3]): 412000 M⁻¹ s⁻¹
- kon (falcipain-2 (FP2) [4]): 189000 M⁻¹ s⁻¹
